Assay results from patent US5182279A, “Benzothienopyrazinedione compounds and their preparation and use” (Novo Nordisk A/S, priority 1990, dated 1993).

Molecular target: T1, glycine site of the NMDA receptor complex (Rattus norvegicus, UniProt P35439)
T1 construct: thawed rat cerebral cortical membrane homogenate; from tissue; host or cells: rat cerebral cortical membrane homogenate
Assay: Antagonism of glycine enhanced [3H]-MK-801 binding (Test 2)
Details: dissociation constant of receptor-antagonist complex, Schild analysis; rat cerebral membrane homogenate, pH 7.40, 23° C., 60 min, 1 nM [3H]-MK-801, 300 nM glutamate
Protocol: The glycine antagonism is measured by determining the Ki value which represents the dissociation constant (μM) of the receptor-antagonist complex.
Antagonism enhanced [^3 H]-MK-801 binding (Test 2)
1 ml of thawed and extensively washed rat cerebral membrane homogenate in HEPES-NaOH (20 mM) pH 7.40 were incubated at 23° C. for 60 min. with 25μl[^3 H]-MK-801 (1 nM final concentration), 25 μl glutamate (300 nM final concentration), test compound in concentrations corresponding to 0, 0.5, 2 and 5 times the IC50 value from the [^3 H]-glycine binding assay (test 1) for each concentration of glycine (10; 100; 1,000; 10,000 and 100,000 nM final concentration). The binding reaction was terminated by adding 5 ml of ice- cold buffer followed by rapid filtration through Whatman GF/C glass fiber filters and 5 ml wash with ice-cold buffer. Bound radioactivity was measured by scintillation counting. Ki values were determined by Schild analysis of the data using
log(dosis ration-1)=log[Inhibitor]-log(Ki)

In order of falling Ki:
1. NC1CCN(O)C1=O (centres unmarked) [HA-966, 3-amino-1-hydroxy-2-pyrrolidone, reference compound]  16 µM
2. O=C(O)c1cc(O)c2ccc(Cl)cc2n1 [Example 7-Cl-Kyn, 7-chlorokynurenic acid, reference compound]  0.71 µM
3. O=c1[nH]c2sc3ccccc3c2[nH]c1=O [Example 3, [1]Benzothieno[2,3-b]pyrazine-2,3(1H,4H)-dione]  0.208 µM
4. O=c1[nH]c2sc3c(Cl)cccc3c2[nH]c1=O [Example 12, 6-Chloro[1]benzothieno[2,3-b]pyrazine-2,3(lH,4H)-dione]  0.041 µM
5. O=c1[nH]c2sc3ccc(Cl)cc3c2[nH]c1=O [Example 2, 8-Chloro[1] benzothieno[2,3-b]pyrazine-2,3(1H,4H)-dione]  0.04 µM
6. O=c1[nH]c2sc3ccc(Br)cc3c2[nH]c1=O [Example 4, 8-Bromo[1]benzothieno[2,3-b]pyrazine-2,3(lH,4H)-dione]  0.018 µM
7. O=c1[nH]c2sc3ccc(F)cc3c2[nH]c1=O [Example 1, 8-Fluoro[1]benzothieno[2,3-b]pyrazine-2,3(1H,4H)-dione]  0.008 µM

Tested on: NMDA stimulated [3H]-GABA release from cultured mouse cerebral cortex interneurons
Assay: Inhibition of NMDA stimulated [3H]-GABA release from cultured mouse cerebral cortex interneurons (Test 3)
Type: cell-based
Details: inhibits 50% of NMDA induced [3H]-GABA release, 3 μg/ml NMDA, 37° C.
Description: The NMDA antagonistic properties of the compounds is illustrated by determining their capability to antagonize NMDA stimulated [^3 H]-GABA release from cultured mouse cortex neurons. The NMDA antagonistic activity of the compounds may be shown by determining the IC50 value, which represents the concentration (μM) which inhibits 50% of NMDA induced [^3H]-GABA release.
Inhibition of NMDA stimulated [^3 H]-GABA release from cultured mouse cerebral cortex interneurons (Test 3)
Release experiments are performed using the model described by Drejer et al. (Life Sci. 38, 2077 (1986)). To cerebral cortex interneurons cultured in petri dishes (30 mm) are added 100 μg/ml 3-vinyl-GABA one hour before the experiment in order to inhibit degradation of GABA in the neurons. 30 min. before the experiment 5 μCi [^3 H]-GABA added to each culture and after this preloading period the cells are washed twice with HEPES buffered saline (HBS) containing 10 mM HEPES, 135 mM NaCl, 5 mM KCl, 0.6 mM MgSO4, 1.0 mM CaCl2 and 6 mM D-glucose; pH 7 and placed in a superfusion system. This system consists of a peristaltic pump continuously delivering thermostated 37° C. superfusion medium from a reservoir to the top of a slightly tilted petri dish. The cell monolayer at the bottom of the dish is covered with a piece of nylon mesh to facilitate dispersion of medium over the cell layer. The medium is continuously collected from the lower part of the dish and delivered to a fraction collector. Initially, the cells are superfused with HBS for 15 min. (flow rate 2 ml/min.). Then cells are stimulated for 30 sec. every 4 min. by changing the superfusion medium from HBS to a corresponding medium containing NMDA and antagonist according to the following scheme:
Stimulation no. 1: 3 μg/ml NMDA
Stimulation no. 2: 3 μg/ml NMDA +0.3 μg/ml antagonist
Stimulation no. 3: 3 μg/ml NMDA +3.0 μg/ml antagonist
The release of [^3 H]-GABA in the presence of NMDA is corrected for the mean basal release before and after stimulation. The stimulated release in the presence of antagonist is expressed relative to the stimulated release by NMDA alone and the IC50 value is calculated.

In order of rising IC50:
1. O=c1[nH]c2sc3ccc(Cl)cc3c2[nH]c1=O [Example 2, 8-Chloro[1] benzothieno[2,3-b]pyrazine-2,3(1H,4H)-dione]  0.011 µM
2. O=c1[nH]c2sc3ccc(F)cc3c2[nH]c1=O [Example 1, 8-Fluoro[1]benzothieno[2,3-b]pyrazine-2,3(1H,4H)-dione]  0.039 µM
3. O=c1[nH]c2sc3c(Cl)cc(Cl)cc3c2[nH]c1=O [Example 7, 6,8-Dichloro[1]benzothieno[2,3-b]pyrazine-2,3(1H,4H)dione]  0.068 µM
4. O=c1[nH]c2sc3ccccc3c2[nH]c1=O [Example 3, [1]Benzothieno[2,3-b]pyrazine-2,3(1H,4H)-dione]  0.085 µM
5. O=c1[nH]c2sc3ccc(I)cc3c2[nH]c1=O [Example 8, 8-Iodo[1]benzothieno[2,3-b]pyrazine-2,3(1H,4H)-dione]  0.112 µM
6. O=C(O)c1cc(O)c2ccc(Cl)cc2n1 [Example 7-Cl-Kyn, 7-chlorokynurenic acid, reference compound]  1.3 µM
7. NC1CCN(O)C1=O (centres unmarked) [HA-966, 3-amino-1-hydroxy-2-pyrrolidone, reference compound]  25 µM

Tested on: glycine site coupled to the NMDA ionophor complex
Assay: not given
Details: literature, in words; cited from earlier work

For `N#Cc1cc2[nH]c(=O)c(=O)[nH]c2cc1[N+](=O)[O-]` [CNQX, 6-cyano-7-nitroquinoxaline 2,3-dione], the “activity at the glycine site” value is given as “weak antagonists”.
In the case of `C[C@@H](N)C(=O)O` [D-alanine], the “activity at the glycine site” value is given as “strong agonist activity”.
In the case of `N[C@@H]1CONC1=O` [D-cycloserine], the “activity at the glycine site” value is given as “partial agonists”.
For `N[C@H](CO)C(=O)O` [D-serine], the “activity at the glycine site” value is given as “strong agonist activity”.
In the case of `O=C(O)c1cc(O)c2ccc(Cl)cc2n1` [Example 7-Cl-Kyn, 7-chlorokynurenic acid, reference compound], the “activity at the glycine site” value is listed as “quite strong antagonists”.
For `NC1CCN(O)C1=O` (centres unmarked) [HA-966, 3-amino-1-hydroxy-2-pyrrolidone, reference compound], the “activity at the glycine site” value is listed as “weak antagonists”.

Molecular target: T1, glycine site of the NMDA receptor complex
Assay: [3H]-glycine binding (Test 1)
Details: displacement of 50% of specific [3H]-glycine binding; rat cerebral cortical membrane homogenate, pH 7.1, 0° C., 10 min
Protocol: The glycine site binding activity of these compounds of the present invention can be illustrated by determining their capability for displacing radioactively labelled glycine from the glycine site.
The displacement activity of the compounds may be shown by determining the IC50 value which represents the concentration (μM) which causes a displacement of 50% of the specific binding of [^3 H]-glycine.
^3 H]-glycine binding (Test 1)
1 ml of thawed rat cerebral cortical membrane homogenate in HEPES-Tris (5 mM) and MgCl2 (1 mM) pH 7.1 were incubated at 0° C. for 10 min. with […] and the test compound and buffer. Non-specific binding was determined by incubating with D-serine (1 mM final concentration). The binding reaction was terminated by centrifugation at 15,000 ×g at 4° C. followed by washing of the pellet with three times 3 ml of ice-cold buffer. Bound radioactivity was measured by scintillation counting. IC50 was determined by Hill analysis of at least four concentrations of test compound.

In order of rising IC50:
1. O=c1[nH]c2sc3ccc(F)cc3c2[nH]c1=O [Example 1, 8-Fluoro[1]benzothieno[2,3-b]pyrazine-2,3(1H,4H)-dione]  0.052 µM
2. O=c1[nH]c2sc3ccc(Cl)cc3c2[nH]c1=O [Example 2, 8-Chloro[1] benzothieno[2,3-b]pyrazine-2,3(1H,4H)-dione]  0.056 µM
3. O=c1[nH]c2sc3ccc(Br)cc3c2[nH]c1=O [Example 4, 8-Bromo[1]benzothieno[2,3-b]pyrazine-2,3(lH,4H)-dione]  0.069 µM
4. O=c1[nH]c2sc3c(Cl)cccc3c2[nH]c1=O [Example 12, 6-Chloro[1]benzothieno[2,3-b]pyrazine-2,3(lH,4H)-dione]  0.18 µM
5. O=c1[nH]c2sc3c(F)cccc3c2[nH]c1=O [Example 13, 6-Fluoro[1]benzothieno[2,3-b]pyrazine-2,3(lH,4H)-dione]  0.262 µM
6. O=c1[nH]c2sc3ccccc3c2[nH]c1=O [Example 3, [1]Benzothieno[2,3-b]pyrazine-2,3(1H,4H)-dione]  0.284 µM
7. O=c1[nH]c2sc3c(Cl)cc(Cl)cc3c2[nH]c1=O [Example 7, 6,8-Dichloro[1]benzothieno[2,3-b]pyrazine-2,3(1H,4H)dione]  0.312 µM
8. O=c1[nH]c2sc3cc(Br)c(F)cc3c2[nH]c1=O [Example 14, 7-Bromo-8-fluoro[1]benzothieno[2,3-b]pyrazine-2,3-(1H,4H)-dione]  0.54 µM
9. O=c1[nH]c2sc3ccc(I)cc3c2[nH]c1=O [Example 8, 8-Iodo[1]benzothieno[2,3-b]pyrazine-2,3(1H,4H)-dione]  1 µM
10. O=C(O)c1cc(O)c2ccc(Cl)cc2n1 [Example 7-Cl-Kyn, 7-chlorokynurenic acid, reference compound]  1.4 µM
11. O=c1[nH]c2sc3cc(Cl)ccc3c2[nH]c1=O [Example 5, 7-Chloro[1]benzothieno[2,3-b]pyrazine-2,3(1H,4H)-dione]  6 µM
12. O=c1[nH]c2sc3ccc(C(F)(F)F)cc3c2[nH]c1=O [Example 9, 8-Trifluoromethyl[1]benzothieno[2,3-b]pyrazine-2,3-(1H, 4H)-dione]  7 µM
13. COc1cccc2c1sc1[nH]c(=O)c(=O)[nH]c12 [Example 10, 6-Methoxy[1]benzothieno[2,3-b]pyrazine-2,3(lH,4H)-dione]  10.8 µM
14. NC1CCN(O)C1=O (centres unmarked) [HA-966, 3-amino-1-hydroxy-2-pyrrolidone, reference compound]  13 µM
15. COc1ccc2c(c1)sc1[nH]c(=O)c(=O)[nH]c12 [Example 11, 7-Methoxy[1]benzothieno[2,3-b]pyrazine-2,3(lH,4H)-dione]  15 µM
